Tests used:
neocortical neuron = assay: Single-cell recording with microdialysis drug delivery via minivalve, neocortex of freely moving rat; assay type: in vivo
Procedure: The experiment was performed on a freely moving rat which carried the minivalve 100 of the present invention on its head as illustrated in FIG. 1.

[1] = system: single neuron, in the hippocampus; assay: Single-cell recording/microdialysis study with minivalve, hippocampus of freely moving rat; assay type: in vivo
Description: Referring now to FIGS. 6a-6c, there is illustrated graphical data from a single-cell recording/microdialysis study performed with the minivalve 100 of the present invention. The recordings were made from the same single neuron, in the hippocampus of the freely moving rat 102 having the minivalve 100 mounted on its head, as illustrated in FIG. 1.

Row | Structure (SMILES) | effect on cell firing in the neocortex (neocortical neuron; ethanol delivered via microdialysis for two minutes, freely moving rat) | time to effect after the minivalve was switched (neocortical neuron; ethanol, neocortex) | effect on firing of hippocampal neuron, first perfusion ([1]; first ethanol perfusion into hippocampus recording site) | time to effect after minivalve activation ([1]; first ethanol perfusion, hippocampus) | effect on firing of hippocampal neuron, second delivery ([1]; second ethanol delivery, same neuron) | effect on firing of a neocortical neuron, first drug perfusion (neocortical neuron; 500 μM NMDA via microdialysis probe, freely moving rat) | time to effect after the minivalve switch (neocortical neuron; 500 μM NMDA, first perfusion, switch from position 1 to position 2) [min] | effect on firing of a neocortical neuron, second delivery (neocortical neuron; second NMDA delivery after wash-out) | effect of third exposure (neocortical neuron; third NMDA exposure three hours later) | effect on firing of hippocampal neuron, subsequent application ([1]; NMDA application through the probe after the second ethanol delivery)
1 | CCO [ethanol] | instant cell firing suppressant effect | within one minute | suppressed the firing of the recorded neuron | as quickly as two minutes | ineffective |  |  |  |  | 
2 | CN[C@H](CC(=O)O)C(=O)O [NMDA] |  |  |  |  |  | brief firing rate increase at point D, followed by a silent period | ≤ 1 | ineffective | clear excitatory effects associated with an EEG seizure | initial firing rate increase, followed by electrical silence

Reference: US6602220B1, “Miniature air-controlled drug selector and delivery device portable by small animals” (The Research Foundation of State University of New York, priority 2000, dated 2003)
